From patent US20090076050A1, “SYNERGISTIC TUMOR-KILLING EFFECT OF RADIATION AND BERBERINE COMBINED TREATMENT IN LUNG CANCER” (CHUNG SHAN MEDICAL U., priority 2007, published 2009)
Residues, ends and D or L forms follow the SMILES beside them. *: point of attachment. Cbz = O=C(OCc1ccccc1)*; CH2F = FC*

System: A549 cells
Assay: inhibition assay with caspase and autophagy inhibitors on cells co-treated with berberine and IR
Type: cell-based, human
Description: Berberine has been reported to induce cell death in several cancer cells via mitochondrial disruption (Lin J P, et al. World J Gastroenterol 2006; 12:21-28.). Therefore, mitochondrial membrane potential was next measured with JC-1. Mitochondria membrane potential (Δ Ψm), the lipophilic cationic probe fluorochrome JC-1 (Invitrogen) was used. […] After a treatment of radiation (6 Gy) for 24 h in the absence or presence of 1.0-10 μM berberine, cells were rinsed with DMEM, and JC-1 (5 μmol/L) was loaded. Determination of Δ Ψm was also carried out with a FACScan Flow Cytometer. […] It has been reported that depolarized mitochondria would move into autophagic vacuoles in response to appropriate stimulation; thus, mitochondria dysfunction may be a point of overlap between apoptotic and autophagocytic processes (Bras M, et al. Biochemistry (Mosc) 2005; 70:231-39). […] On the other hand, beclin-1 siRNA and 3-MA (autophagy inhibitor) blocked the cell death induced by 5.0 μM berberine combined with 6 Gy IR (p<0.001). As a consequence, berberine sensitized A549 cells to IR damage via inducing autophagic cell death.

Cn1cnc(N)c2ncnc1-2 [3-MA, 3-methyladenine]
effect of inhibitor on cell death induced by berberine combined with IR (A549, 5.0 μM berberine combined with 6 Gy IR, p<0.001): blocked

COC(=O)C[C@H](NC(=O)[C@H](C)NC(=O)[C@@H](NC(=O)OCc1ccccc1)C(C)C)C(=O)CF [z-VAD-fmk] (Cbz-Val-Ala-Asp(OMe)-CH2F)
effect of inhibitor on cell viability of cells co-treated with berberine and IR (A549, berberine and IR co-treatment, p=0.15): did not significantly affect
